From patent US12240818B2, “Crystalline forms of plasma kallikrein inhibitors” (Rezolute, Inc., priority 2019, dated 2025)
One block for each molecule: values may come before it.

What was measured:
[1] = Aqueous solubility of solid forms; assay type: physicochemical; conditions: for aqueous solubility: at 25° C., acetate
[2] = Compression stability of crystalline forms (XRPD, TGA, DSC); assay type: physicochemical; conditions: compression under 11×10^5 N force for about 25-28 hours; acetate
Protocol: X-Ray Powder Diffraction patterns were collected under ambient conditions (about 20° C.) on a PANalytical X'Pert PRO X-ray diffractometer (Malvern Panalytical, Malvern, UK) using Cu Kα radiation (45 kV, 40 mA), θ-θ goniometer, focusing mirror, divergence slit (½″), Soller slits at both incident and divergent beam (4 mm), a transmission foil sample stage (Kapton® polyimide, 12.7 μm thickness film), and a PIXcel detector. The software used for data collection was X'Pert Data Collector, version 2.2f, and the data was presented using X'Pert Data Viewer, version 1.2d. The data collection range was 2.994-35°2θ with a continuous scan speed of 0.202004° s^−1. Differential scanning calorimetry data was collected on a PerkinElmer Pyris 6000 DSC equipped with a 45 position sample holder. The instrument was verified for energy and temperature calibration using certified indium. In the examples below, a predefined amount of the sample (0.5-3.0 mg) was placed in a pin holed aluminum pan and heated at 20° C./min from 30° C. to 350° C., or varied as experimentation dictated. A purge of dry nitrogen at 20 mL/min was maintained over the sample. The instrument control, data acquisition and analysis were performed with Pyris Software v11.1.1 revision H. Thermo-Gravimetric Analysis data was collected on a PerkinElmer Pyris 1 TGA equipped with a 20 position auto-sampler. The instrument was calibrated using a certified weight and certified Alumel and Perkalloy for temperature. In the examples below, a predefined amount of the sample (˜5 mg) was loaded onto a pre-tared aluminum crucible and was heated at 20° C./min from ambient temperature to 400° C. unless otherwise stated. A nitrogen purge at 20 mL/min was maintained over the sample. The instrument control, data acquisition and analysis were performed with Pyris Software v11.1.1 revision H. The manufacturing process for solid dosage forms can require high compression and/or grinding, which may cause a change in crystal structure for some compounds. Compound 1 Form I and Form II were subjected to compression under 11×10^5N force for about 25-28 hours to assess the impact of compression upon the form stability of these crystalline forms.

[3] = Grinding stability of crystalline forms (XRPD, thermal); assay type: physicochemical
Protocol: X-Ray Powder Diffraction patterns were collected under ambient conditions (about 20° C.) on a PANalytical X'Pert PRO X-ray diffractometer (Malvern Panalytical, Malvern, UK) using Cu Kα radiation (45 kV, 40 mA), θ-θ goniometer, focusing mirror, divergence slit (½″), Soller slits at both incident and divergent beam (4 mm), a transmission foil sample stage (Kapton® polyimide, 12.7 μm thickness film), and a PIXcel detector. The software used for data collection was X'Pert Data Collector, version 2.2f, and the data was presented using X'Pert Data Viewer, version 1.2d. The data collection range was 2.994-35°2θ with a continuous scan speed of 0.202004° s^−1.
Differential scanning calorimetry data was collected on a PerkinElmer Pyris 6000 DSC equipped with a 45 position sample holder. The instrument was verified for energy and temperature calibration using certified indium. In the examples below, a predefined amount of the sample (0.5-3.0 mg) was placed in a pin holed aluminum pan and heated at 20° C./min from 30° C. to 350° C., or varied as experimentation dictated. A purge of dry nitrogen at 20 mL/min was maintained over the sample. The instrument control, data acquisition and analysis were performed with Pyris Software v11.1.1 revision H.
Thermo-Gravimetric Analysis data was collected on a PerkinElmer Pyris 1 TGA equipped with a 20 position auto-sampler. The instrument was calibrated using a certified weight and certified Alumel and Perkalloy for temperature. In the examples below, a predefined amount of the sample (˜5 mg) was loaded onto a pre-tared aluminum crucible and was heated at 20° C./min from ambient temperature to 400° C. unless otherwise stated. A nitrogen purge at 20 mL/min was maintained over the sample. The instrument control, data acquisition and analysis were performed with Pyris Software v11.1.1 revision H.
Samples of both Form I and Form II (about 100 mg each) were subjected to grinding operations to assess the impact on solid form and observed microscopy. It was of interest to note whether amorphous content was generated, and to review the impact upon water content for the batches, especially with regards to Form II hydrate.

[4] = test system: patients with hereditary angioedema; conditions: cited from earlier work
[5] = test system: animal model of ischemic stroke; conditions: cited from earlier work
[6] = test system: angiotensin-II-treated rodents; conditions: cited from earlier work
[7] = test system: rat model of ischemic stroke; conditions: cited from earlier work
[8] = test system: model of hemorrhagic stroke; conditions: cited from earlier work
[9] = test system: mouse model of middle cerebral artery occlusion; conditions: cited from earlier work

solubility ([1]; water, 25 °C): ~8300 µg/mL
TGA thermograph change following compression [2]: no change in the TGA thermograph
stability under manual stress ([3]; compression and grinding, summary): superior stability to hydrated Form II
Molecule: CC(=O)O.N=C(N)c1ccc(CNC(=O)c2cnn(Cc3ccccc3)c2)cc1 [Form I, 1-benzyl-N-(4-carbamimidoylbenzyl)-1H-pyrazole-4-carboxamide acetate]
DSC thermograph change following compression [2]: reduction in the intensity and temperature of the melt endotherm
XRPD pattern change following compression [2]: subtle reduction in diffraction resolution

Molecule: Ecallantide
effect on hereditary angioedema [4]: alleviates edema
brain edema, infarct volume and neurological deficits [5]: reduced brain edema, infarct volume and neurological deficits

Molecule: CC(=O)O.N=C(N)c1ccc(CNC(=O)c2cnn(Cc3ccccc3)c2)cc1 [Compound 1, 1-benzyl-N-(4-carbamimidoylbenzyl)-1H-pyrazole-4-carboxamide acetate salt]
retinal vascular permeability [6]: reduce retinal vascular permeability
infarction volume and cerebrovascular edema [7]: reduce infarction volume and cerebrovascular edema
expansion of intracerebral hemorrhage [8]: reduce

aqueous solubility [1]: about 7.2 mg/mL
Molecule: CC(=O)O.N=C(N)c1ccc(CNC(=O)c2cnn(Cc3ccccc3)c2)cc1 [Form III, 1-benzyl-N-(4-carbamimidoylbenzyl)-1H-pyrazole-4-carboxamide acetate]

Molecule: NC(N)=NCCC[C@@H](N)C(=O)N[C@@H](CCCN=C(N)N)C(=O)N1CCC[C@H]1C(=O)N1C[C@H](O)C[C@H]1C(=O)NCC(=O)N[C@@H](Cc1cccs1)C(=O)N[C@@H](CO)C(=O)N1Cc2ccccc2C[C@@H]1C(=O)N1[C@H](C(=O)N[C@@H](CCCN=C(N)N)C(=O)O)C[C@@H]2CCCC[C@@H]21 [icatibant]
effect on hereditary angioedema [4]: effective

aqueous solubility [1]: about 5.5 mg/mL
TGA thermograph change following compression [2]: slight increase in the water content
water content post-grinding ([3]; after grinding): 3.93 wt %
water content at point of production ([3]; before grinding): 2.76 wt %
Molecule: CC(=O)O.N=C(N)c1ccc(CNC(=O)c2cnn(Cc3ccccc3)c2)cc1 [Form II, 1-benzyl-N-(4-carbamimidoylbenzyl)-1H-pyrazole-4-carboxamide acetate]
DSC thermograph change following compression [2]: reduction in the intensity, but increase of the temperature of the main melt endotherm
XRPD pattern change following compression [2]: significant change in the diffraction pattern to a pattern of reduced crystallinity
change of solid form post-grinding (thermal, XRPD) ([3]; about 100 mg ground): minor alteration in reflection resolution and intensity

aqueous solubility [1]: about 7.1 mg/mL
Molecule: CC(=O)O.N=C(N)c1ccc(CNC(=O)c2cnn(Cc3ccccc3)c2)cc1 [Form V, 1-benzyl-N-(4-carbamimidoylbenzyl)-1H-pyrazole-4-carboxamide acetate]

Molecule: Hoe-140 [reference compound]
retinal vascular permeability [6]: reduce retinal vascular permeability

B1: C1-INH: the major endogenous inhibitor of PK (protein, UniProt P05155 23-500, looked up)
Plasma protease C1 inhibitor: NPNATSSSSQDPESLQDRGEGKVATTVISKMLFVEPILEVSSLPTTNSTTNSATKITANTTDEPTTQPTTEPTTQPTIQPTQPTTQLPTDSPTQPTTGSFCPGPVTLCSDLESHSTEAVLGDALVDFSLKLYHAFSAMKKVETNMAFSPFSIASLLTQVLLGAGENTKTNLESILSYPKDFTCVHQALKGFTTKGVTSVSQIFHSPDLAIRDTFVNASRTLYSSSPRVLSNNSDANLELINTWVAKNTNNKISRLLDSLPSDTRLVLLNAIYLSAKWKTTFDPKKTRMEPFHFKNSVIKVPMMNSKKYPVAHFIDQTLKAKVGQLQLSHNLSLVILVPQNLKHRLEDMEQALSPSVFKAIMEKLEMSKFQPTLLTLPRIKVTTSQDMLSIMEKLEFFDFSYDLNLCGLTEDPDLQVSAMQHQTVLELTETGVEAAAASAISVARTLLVFEVQQPFLFVLWDQQHKFPVFMGRVYDPRA
infarct size [9]: reduced infarct size
